Values of other authors as cited in patent US20020012634A1, “Antimicrobial dental materials contraining 2,4,4' -trichloro2' -hydroxydiphenyl ether” (priority 1997, published 2002).

How the values were obtained:
[1] = test system: Gram-positive and Gram-negative bacteria as well as fungi, yeasts and viruses
bacteria = settings: long-term experiments
plaque bacteria = settings: toothpaste ingredient, dentifrices

Oc1cc(Cl)ccc1Oc1ccc(Cl)cc1Cl [triclosan, 2,4,4′-trichloro-2′-hydroxydiphenyl ether]
solubility in organic solvents: soluble in many organic solvents | water solubility: low | antimicrobial activity, in words [1]: highly effective antimicrobial with a broad spectrum of activity | development of bacterial resistance (bacteria): no development of bacterial resistance | effect against plaque bacteria / plaque (plaque bacteria): effective against plaque bacteria
